Laboratory results taken from paper PMC7269513 (Antimicrobial Agents and Chemotherapy, 2020).
Where “and” joins values, the source holds several entries; their conditions need not be identical. Equal entries are not always repeated. Where two headings read alike, the source gives them in different places.

What was measured:
OXA-48 [1] = target: T1, OXA-48 (Klebsiella pneumoniae, UniProt Q6XEC0); assay: IC50 of beta-lactamase inhibition (nitrocefin hydrolysis); format: biochemical, Enterobacteriaceae; details: read-out: IC50 (nM) of drug
KPC-2 [2] = target: T2, KPC-2 (Klebsiella pneumoniae, UniProt Q9F663); assay: as above; format: biochemical; details: KPC-2, class A; substrate nitrocefin; 10 min preincubation at 37°C; read-out: IC50 (nM) of drug
KPC-3 [3] = target: T3, KPC-3 (Klebsiella pneumoniae, UniProt Q9F663, H272Y); assay: Stoichiometry of beta-lactamase inhibition; format: biochemical; details: minimal BLI/enzyme ratio reducing enzyme activity by at least 90%
Method: (§1) Purified enzyme at 1 μM concentration in buffer A was mixed with BLI at a BLI/enzyme ratio varying from 128 to 0.0625. […]. Stoichiometry of inhibition was determined as a minimal BLI/enzyme ratio reducing enzyme activity by at least 90%.

SME-2 [4] = target: T4, SME-2 (Serratia marcescens, UniProt P52682, V207Q); assay: Stoichiometry of beta-lactamase inhibition; format: biochemical; details: minimal BLI/enzyme ratio reducing enzyme activity by at least 90%
Method: as §1

BKC-1 = BKC-1 (Klebsiella pneumoniae, UniProt A0A0F6QEY8); assay: Stoichiometry of beta-lactamase inhibition; format: biochemical; details: minimal BLI/enzyme ratio reducing enzyme activity by at least 90%
Method: as §1

FRI-1 = FRI-1 (Enterobacter cloacae, UniProt A0A0M5L4T8); assay: Stoichiometry of beta-lactamase inhibition; format: biochemical; details: minimal BLI/enzyme ratio reducing enzyme activity by at least 90%
Method: as §1

SHV-12 [5] = target: T5, SHV-12 (Klebsiella pneumoniae, UniProt P0AD64, E235K/G234S/L31Q); assay: Stoichiometry of beta-lactamase inhibition; format: biochemical; details: minimal BLI/enzyme ratio reducing enzyme activity by at least 90%
Method: as §1

TEM-43 = TEM-43 (Escherichia coli, UniProt P62593, E102K/M180T/R162H, species not given); assay: Stoichiometry of beta-lactamase inhibition; format: biochemical; details: minimal BLI/enzyme ratio reducing enzyme activity by at least 90%
Method: as §1

CTX-M-14 = CTX-M-14 (Escherichia coli, UniProt Q9L5C7); assay: IC50 of beta-lactamase inhibition (nitrocefin hydrolysis); format: biochemical; details: read-out: IC50 (nM) of drug
P99 [6] = target: T6, P99 (Enterobacter cloacae, UniProt P05364); assay: as above; format: biochemical; details: P99, class C; substrate nitrocefin; 10 min preincubation at 37°C; read-out: IC50 (nM) of drug
Method: (§2) […]; Initial rates of reaction were calculated and exported to Prism software to calculate IC50 values using the “dose-response—inhibition, variable slope (four parameters)” equation. Ki values were calculated by the method of Waley ([31]). This method was previously used to calculate Ki values for boronic fast-on–fast-off BLIs.

CTX-M-15 [7] = target: T7, CTX-M-15 (Escherichia coli, UniProt Q9EXV5); assay: as above; format: biochemical; details: read-out: IC50 (nM) of drug
Method: as §2

SHV-12 [8] = target: T5, SHV-12; assay: as above; format: biochemical; details: read-out: IC50 (nM) of drug
P99 [9] = target: T6, P99; assay: Stoichiometry of beta-lactamase inhibition; format: biochemical; details: minimal BLI/enzyme ratio reducing enzyme activity by at least 90%
Method: (§3) […]. Stoichiometry of inhibition was determined as a minimal BLI/enzyme ratio reducing enzyme activity by at least 90%.

OXA-23 [10] = target: T8, OXA-23 (Acinetobacter baumannii, UniProt Q9L4P2); assay: Stoichiometry of beta-lactamase inhibition; format: biochemical; details: minimal BLI/enzyme ratio reducing enzyme activity by at least 90%
Method: as §3

OXA-24 [11] = target: T9, OXA-24 (Acinetobacter baumannii, UniProt Q8RLA6); assay: Stoichiometry of beta-lactamase inhibition; format: biochemical; details: minimal BLI/enzyme ratio reducing enzyme activity by at least 90%
Method: as §3

OXA-48 [12] = target: T1, OXA-48; assay: Stoichiometry of beta-lactamase inhibition; format: biochemical; details: minimal BLI/enzyme ratio reducing enzyme activity by at least 90%
Method: as §3

OXA-58 [13] = target: T10, OXA-58 (Acinetobacter baumannii, UniProt Q2TR58); assay: Stoichiometry of beta-lactamase inhibition; format: biochemical; details: minimal BLI/enzyme ratio reducing enzyme activity by at least 90%
Method: as §3

CTX-M-15 [14] = target: T7, CTX-M-15; assay: Stoichiometry of beta-lactamase inhibition; format: biochemical; details: minimal BLI/enzyme ratio reducing enzyme activity by at least 90%
Method: as §3

KPC-2 [15] = target: T2, KPC-2; assay: Stoichiometry of beta-lactamase inhibition; format: biochemical; details: minimal BLI/enzyme ratio reducing enzyme activity by at least 90%
Method: as §3

[16] = tested on: strain producing cloned L1 from Stenotrophomonas maltophilia; details: strain producing cloned L1 (B3 subclass MBL); cited from earlier work
OXA-48 [17] = target: T1, OXA-48; assay: koff of enzyme activity recovery, jump dilution method; format: biochemical, Enterobacteriaceae; details: derived from the ratio of koff and k2/K
Method: (§4) Enzyme at a 1 μM concentration in buffer A was mixed with BLI at an 8-fold-higher concentration than its stoichiometry ratio (determined in preliminary stoichiometry experiments). […].

VIM-1 [18] = target: T11, VIM-1 (Pseudomonas aeruginosa, UniProt A0A0F7KYQ8); assay: IC50 of beta-lactamase inhibition (nitrocefin hydrolysis); format: biochemical
OXA-23 [19] = target: T8, OXA-23; assay: as above; format: biochemical; details: read-out: IC50 (nM) of drug
KPC-3 [20] = target: T3, KPC-3; assay: koff of enzyme activity recovery, jump dilution method; format: biochemical; details: derived from the ratio of koff and k2/K
Method: as §4

SME-2 [21] = target: T4, SME-2; assay: as above; format: biochemical; details: derived from the ratio of koff and k2/K
Method: as §4

P99 [22] = target: T6, P99; assay: as above; format: biochemical; details: derived from the ratio of koff and k2/K
Method: as §4

OXA-23 [23] = target: T8, OXA-23; assay: as above; format: biochemical; details: derived from the ratio of koff and k2/K
Method: as §4

OXA-24 [24] = target: T9, OXA-24; assay: as above; format: biochemical; details: derived from the ratio of koff and k2/K
Method: as §4

OXA-58 [25] = target: T10, OXA-58; assay: as above; format: biochemical; details: derived from the ratio of koff and k2/K
Method: as §4

CTX-M-15 [26] = target: T7, CTX-M-15; assay: as above; format: biochemical; details: derived from the ratio of koff and k2/K
Method: as §4

KPC-2 [27] = target: T2, KPC-2; assay: as above; format: biochemical; details: derived from the ratio of koff and k2/K
Method: as §4

IMP-1 [28] = target: T12, IMP-1 (Serratia marcescens, UniProt P52699); assay: Ki of competitive MBL inhibition (method of Waley); format: biochemical
Method: as §2

VIM-1 [29] = target: T11, VIM-1; assay: Ki of competitive MBL inhibition (method of Waley); format: biochemical
Method: as §2

IMP-1 [30] = target: T12, IMP-1; assay: IC50 of beta-lactamase inhibition (imipenem hydrolysis); format: biochemical
SHV-12 [31] = target: T5, SHV-12; assay: biochemical; details: derived from the ratio of koff and k2/K
NDM-1 = NDM-1 (Klebsiella pneumoniae, UniProt C7C422); assay: biochemical
[32] = Kd values for MBLs were based on Kis

## O=C(O)c1c(F)ccc2c1OB(O)[C@@H]1C[C@H]21 [QPX7728]
OXA-48 [1]
  IC50: 1 nM and 1.1 nM
KPC-2 [2]
  IC50: 2.9 ± 0.4 nM
KPC-3 [3]
  Stoichiometry: 1
SME-2 [4]
  Stoichiometry: 1
BKC-1
  Stoichiometry: 1
FRI-1
  Stoichiometry: 1
SHV-12 [5]
  Stoichiometry: 1
TEM-43
  Stoichiometry: 1
CTX-M-14
  IC50: 0.94 ± 0.2 nM
P99 [6]
  IC50: ~22 nM and 22 nM
CTX-M-15 [7]
  IC50: 1.2 ± 0.1 nM
SHV-12 [8]
  IC50: 1.9 ± 0.6 nM
P99 [9]
  Stoichiometry: 1
OXA-23 [10]
  Stoichiometry: 2
OXA-24 [11]
  Stoichiometry: 1
OXA-48 [12]
  Stoichiometry: 1
OXA-58 [13]
  Stoichiometry: 1
CTX-M-15 [14]
  Stoichiometry: 1
KPC-2 [15]
  Stoichiometry: 1
[16]
  ability to reduce MICs of meropenem and ceftazidime: inability
OXA-48 [17]
  Kd: 0.13 ± 0.01 nM
VIM-1 [18]; read-out: IC50 (nM) of drug
  IC50: 14 ± 4 nM
OXA-23 [19]
  IC50: 1 nM and 1.2 nM
KPC-3 [20]
  Kd: 0.31 ± 0.06 nM
SME-2 [21]
  Kd: 0.15 ± 0.02 nM
P99 [22]
  Kd: 0.53 ± 0.06 nM
OXA-23 [23]
  Kd: 1.6 ± 0.2 nM
OXA-24 [24]
  Kd: 0.58 ± 0.1 nM
OXA-58 [25]
  Kd: 3.2 ± 0.3 nM
CTX-M-15 [26]
  Kd: 0.11 ± 0.02 nM
KPC-2 [27]
  Kd: 0.25 ± 0.03 nM
IMP-1 [28]; [32]
  Kd: 240 ± 30 nM
IMP-1 [28]; competitive, fast-on–fast-off
  Ki: 240 ± 30 nM
VIM-1 [29]; [32]
  Kd: 7.5 ± 2.1 nM
VIM-1 [29]; competitive, fast-on–fast-off
  Ki: 7.5 ± 2.1 nM
IMP-1 [30]
  IC50: 610 ± 70 nM
SHV-12 [31]
  Kd: 28 ± 4 nM

## O=C(NC1CCNCC1)[C@@H]1CC[C@@H]2CN1C(=O)N2OS(=O)(=O)O [Relebactam, relebactam]
CTX-M-14
  IC50: 34 ± 10 nM
P99 [6]
  IC50: 36 ± 4 nM
SHV-12 [8]
  IC50: 330 ± 50 nM
VIM-1 [18]; IC50 (nM) of drug
  IC50: > 160000 nM
NDM-1
  IC50: > 160000 nM
IMP-1 [30]
  IC50: > 160000 nM

## O=C(O)C[C@@H]1CC[C@H](NC(=O)Cc2cccs2)B(O)O1 [Vaborbactam, vaborbactam]
OXA-48 [1]
  IC50: 6900 nM
KPC-2 [2]
  IC50: 110 ± 30 nM
CTX-M-14
  IC50: 110 ± 40 nM
P99 [6]
  IC50: 88 ± 38 nM
CTX-M-15 [7]
  IC50: 92 ± 13 nM
SHV-12 [8]
  IC50: 56 ± 11 nM
VIM-1 [18]; IC50 (nM) of drug
  IC50: > 160000 nM
OXA-23 [19]
  IC50: 120000 nM
NDM-1
  IC50: > 160000 nM
IMP-1 [30]
  IC50: > 160000 nM
